Measurements published in article PMC10675340, “Preparation, Radiolabeling with ^68Ga/^177Lu and Preclinical Evaluation of Novel Angiotensin Peptide Analog: A New Class of Peptides for Breast Cancer Targeting” (Pharmaceuticals, 2023).
Like-named read-outs stand apart in the source and are kept apart here. Where a SMILES comes first, the peptide text is derived from it. [ ]: non-standard residue; d: D form. The star is where a group is joined. DOTA = O=C(O)CN1CCN(CC(=O)O)CCN(CC(=O)*)CCN(CC(=O)O)CC1; βAla = NCCC(=O)O

Assays:
[1] = test system: athymic nude mice; test: In vivo metabolic stability (radio-HPLC of mouse urine); details: urine collected at 2 h p.i.
Protocol: Athymic nude mice were utilized for the metabolism study to determine the potential radio-metabolites in the urine. An aliquot of urine sample was collected by manual void at the time of sacrifice and analyzed by radio-HPLC. […] The results signified that most of the radioactivity (>80%) was still bound to the ^68Ga-AngII peptide analog (Figure 2). There were no major metabolites detected in the urine sample at 2 h p.i. A small hydrophilic metabolite peak was found at about 4 min for the urine sample. This finding confirms that the ^68Ga-AngII peptide analog is not prone to fast in vivo disintegration and is also in agreement with the results of high in vitro complex strength.
To determine the radio-metabolites of the ^68Ga-labeled AngII peptide analog, an aliquot of urine sample was collected by manual void at the time of sacrifice and mixed with an equal volume of CH3CN. The mixture was centrifuged at 7000 rpm for 5 min. The resulting supernatant was collected and passed through a 0.20 μm Millex-LG filter unit to remove any precipitate or foreign particles and then analyzed by radio-HPLC.

[2] = In vivo receptor-blocking study in nude mice bearing MDA-MB-231 xenografts; details: mouse, total radioactivity, nude mice with MDA-MB-231 xenografts, 2 h p.i., co-injected ~100 µg unlabeled AngII peptide analog, mean ± SD
Protocol: (§1) To validate the selectivity of the AngII peptide analog for its intended target AT1 receptors, we performed a receptor-blocking assay by administering a blocking dose of ~100 μg of unlabeled AngII peptide premixed with the radiolabeled AngII peptide analog at 2 h p.i. […] Furthermore, a varying influence pattern of the pharmacological receptor blocking dose was detected mainly in the intestines, heart, and kidneys as the uptake in these organs was reduced to variable degrees depending on the degree of AT1 receptor expression by these organs and tissues (Table 2).
(§2) For the receptor-blocking study, an additional group of mice was injected with the radiolabeled AngII peptide premixed with unlabeled AngII peptide (~100 μg) to serve as a receptor-blocking agent. In vivo, biodistribution and blocking studies were performed at 2 h p.i. as stated before.

[3] = test system: AT1 receptor; test: as above; details: mouse, total radioactivity, 2 h p.i., co-injected ~100 µg unlabeled AngII peptide analog, mean ± SD
Protocol: as §1, §2

[4] = In vivo biodistribution in normal Balb/c mice; parameters: species or system mouse; details: female, mouse, iv, total radioactivity, normal Balb/c mice, i.v. tail vein, mean ± SD, n = 4-6
Protocol: (§3) The in vivo biodistribution of ^68Ga-labeled AngII peptide analog was carried out in female Balb/c mice, at various time points, to observe the uptake in the normal tissues and organs and find the excretion route of the radiolabeled peptides. […] Low uptake and retention of the radiopeptide in the liver varying from 1.54 ± 0.28% ID/g at 45 min to 0.48 ± 0.17% ID/g at 2 h p.i. is probably related to the high hydrophilicity (log p = −0.55 ± 0.11) of the ^68Ga-labeled AngII peptide analog. […] The efficient clearance from the kidneys is possibly associated with the urinary excretion of the radiopeptide. […] The low amount of uptake in the bone (up to 0.37 ± 0.14% ID/g) (Table 2) indicates the minimal breakdown of the ^68Ga-labeled AngII peptide complex in vivo combined with the minor release of free ^68Ga. These findings are in agreement with the high in vitro metabolic stability observed in the human plasma for the radiolabeled AngII peptide. The accumulation in the extremely vascular organ lungs was also low (up to 1.11 ± 0.37% ID/g) signifying a low trapping by the lungs.
(§4) Approval from the Institutional Animal Care and Use Committee was obtained for the animal protocol used. Additionally, strict international regulations govern the safe and proper use of laboratory animals employed during animal experiments. In vivo, biodistribution was performed on healthy female mice according to the methods essentially described previously. In summary, Balb/c mice (n = 5 per time point, body mass 20–25 g) at 45 min and 2 h were administered with the HPLC-purified AngII peptide (~1 µg, 100 µL, 0.925–1.85 MBq; 25–50 µCi) via lateral tail vein injection. At the specified time points, the animals were sacrificed by cervical dislocation. A fraction of the blood was collected from cardiac puncture. Urine was also collected and measured with the bladder contents. Major organs, such as the lungs, pancreas, stomach, liver, heart, kidneys, and intestines were isolated, weighed, and measured for radioactivity. The uptake values of the radiolabeled peptide in different organs are expressed as the percent injected dose per gram (% ID/g) of tissue/organ. The radioactivity in the urine with bladder contents is shown as the percent of the injected dose per organ (% ID/organ). To calculate the injected dose, a standard (20-fold dilution of injected dose) was prepared and counted together with animal tissue samples.

[5] = test system: Balb/c mice; test: In vivo biodistribution in normal Balb/c mice; parameters: species or system mouse; details: normal Balb/c mice, 45 min and 2 h p.i.
Protocol: as §3, §4

[6] = test system: MDA-MB-231 tumor xenografts; test: In vivo tumor targeting and biodistribution in nude mice bearing MDA-MB-231 xenografts; parameters: species or system mouse
Protocol: (with 43% wash away from the tumors over 2 h). The amount of radioactivity found for the ^68Ga-labeled AngII peptide analog in the tumors was always more than the radioactivity detected in the blood and muscle. A general pattern of better tumor-to-blood and tumor-to-muscle uptake ratios was noticed over time for ^68Ga-labeled AngII peptide.
In vivo, tumor uptake was conducted as reported previously. In summary, ~5 million MDA-MB-231 cells in 200 µL sterile PBS were implanted subcutaneously into each nude mouse. Once tumor growth became sufficient (~50–500 mg), tumor uptake and organ biodistribution were carried out after injecting the radiolabeled AngII peptide. The percent of the injected dose per gram in the tumors was determined by using a custom-designed Quattro Pro X9 spreadsheet (Corel Corporation, Austin, TX, USA).

With `CC[C@H](C)[C@H](NC(=O)[C@H](Cc1ccc(O)cc1)NC(=O)[C@@H](NC(=O)[C@H](CCCNC(=N)N)NC(=O)[C@H](CC(=O)O)NC(=O)CCNC(=O)[C@H](CCCCN)NC(=O)CN1CCN(CC(=O)O)CCN(CC(=O)O)CCN(CC(=O)O)CC1)C(C)C)C(=O)N[C@@H](Cc1c[nH]cn1)C(=O)N1CCC[C@H]1C(=O)N[C@@H](Cc1ccccc1)C(=O)N[C@@H](Cc1c[nH]c2ccccc12)C(=O)N[C@@H](CCCCN)C(=O)N[C@@H](Cc1ccc(O)cc1)C(N)=O` [^68Ga-DOTA-AngII peptide, metal not drawn] ({DOTA}-K[βAla]DRVYIHPFWKY-NH2) the “Radioactivity still bound to the radiopeptide in urine” value [1] was > 80%, the tissue uptake at 2 h ([2]; blood, intravenous, read-out: Blood uptake, blocked) was 0.85 ± 0.2 %ID/g and the tissue uptake at 2 h ([2]; liver, read-out: Liver uptake, blocked) was 0.85 ± 0.24 %ID/g. It also gave a tissue uptake at 2 h ([2]; lungs, intravenous, read-out: Lungs uptake, blocked) of 0.89 ± 0.35 %ID/g, a tissue uptake at 2 h ([2]; pancreas, read-out: Pancreas uptake, blocked) of 0.54 ± 0.12 %ID/g and a tissue uptake at 2 h ([2]; spleen, intravenous, read-out: Spleen uptake, blocked) of 0.35 ± 0.09 %ID/g. For the same compound, the tissue uptake at 2 h ([2]; stomach, read-out: Stomach uptake, blocked) was 0.49 ± 0.18 %ID/g, the tissue uptake at 2 h ([3]; heart, intravenous, nude mice with MDA-MB-231 xenografts, read-out: Heart uptake, blocked) was 0.23 ± 0.1 %ID/g and the tissue uptake at 2 h ([3]; intestines without contents, nude mice with MDA-MB-231 xenografts, read-out: Intestines uptake (portion without contents), blocked) was 0.8 ± 0.2 %ID/g. For the same compound, the tissue uptake at 2 h ([3]; kidneys, intravenous, nude mice with MDA-MB-231 xenografts, read-out: Kidneys uptake, blocked) was 2.01 ± 0.87 %ID/g, the tissue uptake at 2 h ([3]; muscle/bone, nude mice with MDA-MB-231 xenografts, read-out: Muscle/bone uptake, blocked) was 0.24 ± 0.1 %ID/g and the tissue uptake at 2 h ([3]; tumor (MDA-MB-231 xenograft), MDA-MB-231 tumor in nude mice, read-out: Tumor uptake, blocked) was 0.6 ± 0.27 %ID/g. The dose excreted at 2 h ([3]; urine with bladder contents, intravenous, nude mice with MDA-MB-231 xenografts, read-out: Urine + Bladder (urinary excretion), blocked) was 43.5 ± 7.9%, the tissue uptake at 0.75 h ([4]; blood, 45 min p.i., read-out: Blood uptake) was 0.85 ± 0.24 %ID/g and the tissue uptake at 2 h ([4]; blood, 2 h p.i., read-out: Blood uptake) was 0.61 ± 0.15 %ID/g. The tissue uptake at 0.75 h ([4]; heart, 45 min p.i., read-out: Heart uptake) was 1.39 ± 0.51 %ID/g, the tissue uptake at 2 h ([4]; heart, 2 h p.i., read-out: Heart uptake) was 0.99 ± 0.26 %ID/g and the tissue uptake at 0.75 h ([4]; intestines without contents, 45 min p.i., read-out: Intestines uptake (portion without contents)) was 1.45 ± 0.39 %ID/g. The tissue uptake at 2 h ([4]; intestines without contents, 2 h p.i., read-out: Intestines uptake (portion without contents)) was 1 ± 0.28 %ID/g, the tissue uptake at 0.75 h ([4]; kidneys, 45 min p.i., read-out: Kidneys uptake) was 9.95 ± 3.39 %ID/g and the tissue uptake at 2 h ([4]; kidneys, 2 h p.i., read-out: Kidneys uptake) was 3.78 ± 1.46 %ID/g. The tissue uptake at 0.75 h ([4]; liver, 45 min p.i., read-out: Liver uptake) was 1.54 ± 0.28 %ID/g, the tissue uptake at 2 h ([4]; liver, 2 h p.i., read-out: Liver uptake) was 0.48 ± 0.17 %ID/g and the tissue uptake at 0.75 h ([4]; lungs, 45 min p.i., read-out: Lungs uptake) was 1.11 ± 0.37 %ID/g. It also gave a tissue uptake at 2 h ([4]; lungs, 2 h p.i., read-out: Lungs uptake) of 0.6 ± 0.2 %ID/g, a tissue uptake at 2 h ([4]; muscle/bone, 2 h p.i., read-out: Muscle/bone uptake) of 0.28 ± 0.1 %ID/g and a tissue uptake at 0.75 h ([4]; pancreas, 45 min p.i., read-out: Pancreas uptake) of 0.5 ± 0.11 %ID/g. For the same compound, the tissue uptake at 2 h ([4]; pancreas, 2 h p.i., read-out: Pancreas uptake) was 0.33 ± 0.06 %ID/g, the tissue uptake at 0.75 h ([4]; spleen, 45 min p.i., read-out: Spleen uptake) was 0.51 ± 0.1 %ID/g and the tissue uptake at 2 h ([4]; spleen, 2 h p.i., read-out: Spleen uptake) was 0.31 ± 0.09 %ID/g. For the same compound, the tissue uptake at 0.75 h ([4]; stomach, 45 min p.i., read-out: Stomach uptake) was 1.06 ± 0.41 %ID/g, the tissue uptake at 2 h ([4]; stomach, 2 h p.i., read-out: Stomach uptake) was 0.81 ± 0.23 %ID/g and the dose excreted at 0.75 h ([4]; urine with bladder contents, 45 min p.i., read-out: Urine + Bladder (urinary excretion)) was 67 ± 8.9%. The dose excreted at 2 h ([4]; urine with bladder contents, 2 h p.i., read-out: Urine + Bladder (urinary excretion)) was 80 ± 12.9%, the “Radioactivity in the whole intestines (with contents)” value [5] was “up to 2.97 % ID/g” and the “Wash away from the tumors” value ([6]; MDA-MB-231 tumors in nude mice, over 2 h (45 min vs 2 h p.i.)) was 43%. The “Clearance through the hepatobiliary system (liver + intestines)” value ([6]; tumor-bearing nude mice) was “below 7 % ID”.
